SMILES strings stand for the structures.

The target of this assay is T1, human liver FBPase (Homo sapiens, UniProt P09467).
T1 construct: made in house; host or cells: E. coli
T1 sequence (P09467 2-338 limits assumed): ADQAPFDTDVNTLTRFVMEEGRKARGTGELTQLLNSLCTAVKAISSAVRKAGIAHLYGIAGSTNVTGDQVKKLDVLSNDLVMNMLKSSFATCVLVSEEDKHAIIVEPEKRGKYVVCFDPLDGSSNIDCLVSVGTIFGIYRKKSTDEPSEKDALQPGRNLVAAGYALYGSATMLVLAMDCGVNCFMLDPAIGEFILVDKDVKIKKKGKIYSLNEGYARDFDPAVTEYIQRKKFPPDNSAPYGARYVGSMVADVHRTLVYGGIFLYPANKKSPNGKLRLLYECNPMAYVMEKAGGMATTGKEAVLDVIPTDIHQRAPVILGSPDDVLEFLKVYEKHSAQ
The assay is described as follows: FBPase assay (malachite green phosphate release). It counts as biochemical. Particulars: recombinant human liver FBPase, 50 μM fructose-1,6-bisphosphate. As for the experimental part: The following tests were carried out for evaluating the inhibitory activity of the compounds of the present invention against human liver FBPase (Swissprot Data base reference PO9467, entry F16P_HUMAN).
Human liver FBPase cDNA (NM_000507) was purchased from Origene Technologies, Inc, subcloned in a vector for expression in E. Coli., and sequenced. Recombinant human liver FBPase (hlFBPase) was purified according to the following protocol that uses heat denaturation similarly to that described by El-Maghrabi et al. [El-Maghrabi, M. R. et al. “Isolation of a human liver fructose-1,6-bisphosphatase cDNA and expression of the protein in Escherichia coli.” J Biol Chem 268:9466-9472, 1993.]. Briefly, E. coli cells, transiently expressing very high levels of soluble and active human liver FBPase, were suspended in 20 mM Tris-HCl pH 7.5, 1 mM EDTA, 1 mM DTT and were lysed by French press. The soluble extract was heat denatured at 65° C. for 5 min, and insoluble, denatured proteins were removed by centrifugation. The extract was then applied to a BioRad Macro-Prep High Q column equilibrated with 20 mM Tris-HCl pH 7.5, 1 mM EDTA, 1 mM DTT and the flow-through (containing FBPase activity) was collected and applied to a BioRad Macro-Prep HS column equilibrated with 20 mM HEPES pH 7.2, 1 mM DTT. A gradient of increasing NaCl concentration was then applied to the HS column and fractions were collected. Fractions containing active FBPase were pooled and further purified by size exclusion chromatography on a Sephacryl S200 column equilibrated in 20 mM Tris-HCl pH 7.5, 150 mM NaCl, 1 mM EDTA, 1 mM DTT. Purity of the enzyme preparation was >90% as assessed by Mass spectrometry.
Recombinant human liver FBPase (hlFBPase) activity was assayed through measuring the inorganic phosphate release that results from the hydrolysis of Fructose-1,6-bisphosphate by the enzyme. As described by Baykov A. A. et al. in [Baykov A. A et al., “Malachite Green procedure for orthophosphate determination and its use in alkaline phosphatase-based enzyme immunoassays”. Anal. Biochem., 171:266-270, 1988], inorganic phosphate can be readily quantified by spectrophotometry at 620 nm after complexation with ammonium molybdate/malachite green reagent. Enzymatic reaction was carried out with modifications of the procedure described by Wright S. W. et al. [Wright S. W. et al., “Anilinoquinazoline inhibitors of Fructose-1,6-bisphosphatase bind to a novel allosteric site: synthesis, in vitro characterization, and X-ray crystallography”. J. Med. Chem. 45:3865-3877, 2002]. Specifically, the reaction was carried out in 96 well plates in a final volume of 100 μl in the presence or in the absence of allosteric inhibitors. Reaction was started adding 25 ng of hlFBPase to the reaction mixture containing 50 mM HEPES-KOH buffer pH 7.2, 2 mM MgCl2, 2 mM EDTA, 1 mM DTT, 50 μM fructose-1,6-bisphosphate and 1% DMSO. After 50 minutes incubation at room temperature, the phosphate released was allowed to form a colored complex for 10 min by adding 150 μl of ammonium molybdate/malachite green reagent containing 0.03% malachite green, 0.2% ammonium molybdate, 0.05% Triton X-100 and 0.7 M H2SO4 in water that was stirred for 30 min at room temperature and filtered through 0.2 μm filter. Under these conditions, the assay was linear with time and able to detect FBPase inhibition after spectrophotometric read-out at 620 nm.
On to `Cc1cc(S(=O)(=O)NC(=O)Nc2cc(Br)cc(NC(N)=O)n2)cs1` [Compound 2, N-{[4-Bromo-6-(carbamoylamino)pyridin-2-yl]carbamoyl}-5-methylthiophene-3-sulfonamide], for which the IC50 came to 0.072 µM. With `Cc1cccc(S(=O)(=O)NC(=O)Nc2cc(Br)ccn2)c1` [Compound 60, N-[(4-Bromopyridin-2-yl)carbamoyl]-3-methylbenzenesulfonamide], the IC50 was 2.07 µM. As to `CC(=O)OCCc1sc(S(=O)(=O)NC(=O)Nc2cc(C(F)(F)F)ccn2)cc1C` [Compound 77, 2-{3-Methyl-5-[({[4-(trifluoromethyl)pyridin-2-yl]carbamoyl}amino)sulfonyl]-2-thienyl}ethyl acetate], the IC50 is 0.809 µM. Consider `CNC(=O)Nc1cc(OC)cc(NC(=O)NS(=O)(=O)c2cc(C)c(OCCOC)s2)n1` [Compound 38, 5-(2-Methoxyethoxy)-N-({4-methoxy-6-[(methylcarbamoyl)amino]pyridin-2-yl}carbamoyl)-4-methylthiophene-2-sulfonamide], for which the IC50 was 0.582 µM.

For the molecule `COCc1sc(S(=O)(=O)NC(=O)Nc2cc(Br)cc(N)n2)cc1C` [Compound 21, N-[(6-Amino-4-bromopyridin-2-yl)carbamoyl]-5-(methoxymethyl)-4-methylthiophene-2-sulfonamide], the IC50 stood at 0.225 µM.

`CCOC(=O)c1cc(NC(=O)NC)nc(NC(=O)NS(=O)(=O)c2cc(C)c(CCOC)s2)c1` [Compound 99, Ethyl-2-[({[5-(2-methoxyethyl)-4-methyl-2-thienyl]sulfonyl}carbamoyl)amino]-6-[(methylcarbamoyl)amino]isonicotinate]: the concentration for half-maximal inhibition (IC50) is 0.92 µM. Then `COCCc1sc(S(=O)(=O)NC(=O)Nc2cc(Br)cc(NCc3ccc(OC)cc3OC)n2)cc1C` [Compound 66, N-({4-Bromo-6-[(2,4-dimethoxybenzyl)amino]pyridin-2-yl}carbamoyl)-5-(2-methoxyethyl)-4-methylthiophene-2-sulfonamide], with 2.35 µM; and `CNC(=O)Nc1cc(Br)cc(NC(=O)NS(=O)(=O)c2csc(C)c2)n1` [Compound 3, N-({4-bromo-6-[(methylcarbamoyl)amino]pyridin-2-yl}carbamoyl)-5-methylthiophene-3-sulfonamide], with 0.059 µM; and `COCCc1sc(S(=O)(=O)NC(=O)Nc2cc(OC)cc(NC(=O)N(C)C)n2)cc1C` [Compound 59, N-({6-[(Dimethylcarbamoyl)amino]-4-methoxypyridin-2-yl}carbamoyl)-5-(2-methoxyethyl)-4-methylthiophene-2-sulfonamide], with 2.03 µM. On to `CNC(=O)Nc1cc(OC)cc(NC(=O)NS(=O)(=O)c2cn(C)c3c(OC)cccc23)n1` [Compound 26, 7-Methoxy-N-({4-methoxy-6-[(methylcarbamoyl)amino]pyridin-2-yl}carbamoyl)-1-methyl-1H-indole-3-sulfonamide], for which the IC50 is 0.312 µM.

With `Cc1cc(S(=O)(=O)NC(=O)Nc2cc(C(F)(F)F)c(F)c(N)n2)sc1CCO` [Compound 84, N-{[6-Amino-5-fluoro-4-(trifluoromethyl)pyridin-2-yl]carbamoyl}-5-(2-hydroxyethyl)-4-methylthiophene-2-sulfonamide], the 50% inhibitory concentration (IC50) was 0.429 µM. In the case of `Cc1cccc(S(=O)(=O)NC(=O)Nc2cc(Br)cc(N)n2)c1` [Compound 36, N-[(6-Amino-4-bromopyridin-2-yl)carbamoyl]-3-methylbenzenesulfonamide], the 50% inhibitory concentration (IC50) was 0.566 µM. Turning to `COCCc1sc(S(=O)(=O)NC(=O)Nc2cc(Br)cc(NCC(F)F)n2)cc1C` [Compound 19, N-({4-Bromo-6-[(2,2-difluoroethyl)amino]pyridin-2-yl}carbamoyl)-5-(2-methoxyethyl)-4-methylthiophene-2-sulfonamide], the 50% inhibitory concentration (IC50) worked out at 0.201 µM. As to `COCCc1sc(S(=O)(=O)NC(=O)Nc2cc(SC)cc(NCCF)n2)cc1C` [Compound 45, N-({6-[(2-Fluoroethyl)amino]-4-(methylthio)pyridin-2-yl}carbamoyl)-5-(2-methoxyethyl)-4-methylthiophene-2-sulfonamide], the IC50 stood at 0.866 µM. Under `COCCc1sc(S(=O)(=O)NC(=O)Nc2cc(Br)cc(N)n2)cc1C` [Compound 10, N-[(6-Amino-4-bromopyridin-2-yl)carbamoyl]-5-(2-methoxyethyl)-4-methylthiophene-2-sulfonamide] stands 0.125 µM.

Regarding `COCCc1sc(S(=O)(=O)NC(=O)Nc2cc(OC)cc(NC(N)=O)n2)cc1C` [Compound 24, N-{[6-(Carbamoylamino)-4-methoxypyridin-2-yl]carbamoyl}-5-(2-methoxyethyl)-4-methylthiophene-2-sulfonamide], the IC50 was 0.259 µM.

Take `COCCc1sc(S(=O)(=O)NC(=O)Nc2cc(OC)cc(C(N)=O)n2)cc1C` [Compound 119, 6-[({[5-(2-Methoxyethyl)-4-methyl-2-thienyl]sulfonyl}carbamoyl)amino]-4-(methoxy)pyridine-2-carboxamide]: the IC50 stood at 4.8 µM.

As to `COCCc1sc(S(=O)(=O)NC(=O)Nc2cc(C(F)(F)F)ccn2)cc1C` [Compound 33, 5-(2-Methoxyethyl)-4-methyl-N-{[4-(trifluoromethyl)pyridin-2-yl]carbamoyl}thiophene-2-sulfonamide], the IC50 is 1.66 µM. As for `CNC(=O)Nc1cc(OC)cc(NC(=O)NS(=O)(=O)c2cc3cc(Cl)ccc3s2)n1` [Compound 1, 5-Chloro-N-({4-methoxy-6-[(methylcarbamoyl)amino]pyridin-2-yl}carbamoyl)-1-benzothiophene-2-sulfonamide], the IC50 came to 0.058 µM. As for `COCCc1sc(S(=O)(=O)NC(=O)Nc2cc(OC)cc(C(=O)OC)n2)cc1C` [Compound 118, Methyl-6-[({[5-(2-methoxyethyl)-4-methyl-2-thienyl]sulfonyl}carbamoyl)amino]-4-(methoxy)pyridine-2-carboxylate], the IC50 turned out to be 2.3 µM. Turning to `CNC(=S)Nc1cc(OC)cc(NC(=O)NS(=O)(=O)c2cc(C)c(CCOC)s2)n1` [Compound 18, 5-(2-Methoxyethyl)-N-[(4-methoxy-6-{[(methylamino)carbonothioyl]amino}pyridin-2-yl)carbamoyl]-4-methylthiophene-2-sulfonamide], the IC50 was 0.185 µM.

For the molecule `COc1cccc2c(S(=O)(=O)NC(=O)Nc3cc(SC)cc(N)n3)cn(C)c12` [Compound 53, N-{[6-Amino-4-(methylthio)pyridin-2-yl]carbamoyl}-7-methoxy-1-methyl-1H-indole-3-sulfonamide], the IC50 is 1.48 µM.

As to `COCCc1sc(S(=O)(=O)NC(=O)Nc2cc(C#N)cc(N)n2)cc1C` [Compound 62, N-[(6-Amino-4-cyanopyridin-2-yl)carbamoyl]-5-(2-methoxyethyl)-4-methylthiophene-2-sulfonamide], the IC50 was 2.12 µM. For the molecule `COCCc1sc(S(=O)(=O)NC(=O)Nc2cc(SC)cc(NCCCO)n2)cc1C` [Compound 74, N-({6-[(3-Hydroxypropyl)amino]-4-(methylthio)pyridin-2-yl}carbamoyl)-5-(2-methoxyethyl)-4-methylthiophene-2-sulfonamide], the IC50 stood at 2.26 µM.

Regarding `COC(=O)c1cc(C(F)(F)F)cc(NC(=O)NS(=O)(=O)c2csc(C)c2)n1` [Compound 98, Methyl-6-({[(5-methyl-3-thienyl)sulfonyl]carbamoyl}amino)-4-(trifluoromethyl)pyridine-2-carboxylate], the IC50 turned out to be 2.29 µM.

A word on the IC50: it is the concentration at which inhibition is half-maximal.

These data come from US8163778B2 (Hoffmann-LA Roche Inc., priority 2007, dated 2012).
